The values below come from patent US20170137880A1, “METHOD FOR TREATING DEPRESSION AND MAJOR DEPRESSIVE DISORDER” (Takeda Pharmaceutical Company Limited, priority 2014, published 2017).

Common to all, as to format: in vivo, human
The test system of one experiment is adult patients with MDD. The experiment can be described thus: Response rate by treatment and genetic subgroup (responders: 50% decrease in MADRS total score from baseline at week 8). The conditions noted are these: for Response rate: 20 mg/day, 8 weeks; for No Response (number of subjects) / Response (number of subjects): Lu 20 mg only. How it is done: (§1) Multicenter, randomized, double-blind, parallel-group, placebo-controlled, drug-referenced, fixed-dose studies were conducted to evaluate the efficacy and safety of vortioxetine (10, 15 and 20 mg/Day) in the acute treatment of adult patients with MDD. A total of 595 individuals meeting the diagnostic criteria from the DSM-IV-TR for recurrent MDD were included in the studies. The current major depressive disorder for each individual was confirmed by the Structured Clinical Interview for DSM Disorders (SCID). […] Individuals were treated with 10, 15 or 20 mg vortioxetine, or a different drug, or a placebo daily for 8 weeks.
(§2) Subjects were seen weekly during the first 2 weeks of treatment and then every 2 weeks up to the end of the 8-week treatment period. The primary outcome measure was change from baseline in MADRS total score after 8 Weeks of treatment. The Montgomery Asberg Depression Rating Scale (MADRS) is a depression rating scale consisting of 10 items, each rated 0 (no symptom) to 6 (severe symptom). The 10 items represent the core symptoms of depressive illness. The rating is based on a clinical interview with the patient, moving from broadly phrased questions about symptoms to more detailed ones, which allow a precise rating of severity, covering the most recent 7 days. Total score is from 0 to 60, with a higher the score being the more severe.
Secondary outcome measures included the proportion of responders at week 8 (responders defined as a 50% decrease in MADRS total score from baseline); a change from baseline in MADRS total score at week 8; and a change in clinical status using CGI-I score at week 8. The Clinical Global Impression—Global Improvement (CGI-I) scale is a 7-point scale rated from 1 (very much improved) to 7 (very much worse). The investigator rated the patient's overall improvement relative to baseline, whether or not, in the opinion of the investigator, this was entirely due to the drug treatment.
Nucleic acid samples from the individuals were run on an Illumina™ HumanOmni5EXOME whole genome bead-chip array according to the manufacturer's protocol. The raw dataset of 595 samples times 4,641,218 variants was narrowed to 473 samples times 3,923,897 variants following quality control (QC).
(§3) A composite score (or genetic score) was calculated via penalized regression using a set of focused genomic regions. The cutoff point of the genetic score that maximizes treatment specific effect was then identified. Statistical significance (via a parametric bootstrap approach) of the treatment effect for the subgroup defined by the optimal cutpoint was then determined.

Another experiment has as its system adult MDD patients. The experiment can be described thus: Cognition, Cognitive and Physical Functioning Questionnaire (CPFQ). As to conditions: for Cognition (CPFQ): 7-variant model, adult MDD patients. The text has this: According to the CDC, cognitive impairment is when a person has trouble remembering, learning new things, concentrating, or making decisions that affect their everyday life. Cognitive impairment ranges from mild to severe. With mild impairment, people may begin to notice changes in cognitive functions, but still be able to do their everyday activities. Severe levels of impairment can lead to losing the ability to understand the meaning or importance of something and the ability to talk or write, resulting in the inability to live independently. Cognitive ability can be assessed by, for example, Massachusetts General Hospital Cognitive and Physical Functioning Questionnaire (see, e.g., Fava et al., J. Clin. Psychiatry, 67:11 (2006)) and/or the Digit Symbol Substitution Test (DSST) (see Mahableshwarker et al., Neuropsychopharmacology, in press 2015).
In FIG. 13, the term “SNP7=1” corresponds to patients in the subgroup identified by the 7-variant model; the term “SNP7=0” corresponds to patients not in the subgroup.

The next experiment relates to MDD individuals. The experiment can be described thus: Treatment effect by MADRS and HAM-A scores in genetic subgroups. The conditions noted are these: for Treatment-specific effect (MADRS scores): 5-variant and 7-variant models. How it is done:
as §1, §2, §3
A least square means plot of MADRS scores obtained during treatment with 10 mg vortioxetine is shown in FIG. 12B using the 7-variant model. […]

Regarding `Br.Cc1ccc(Sc2ccccc2N2CCNCC2)c(C)c1` [vortioxetine, 1-[2-(2,4-Dimethyl-phenylsulfanyl)-phenyl]-piperazine, hydrobromide], the Response rate with adult patients with MDD (COL26A1 rs4045 and a CACNA1C variant positive) is 14/17; in the experiment on adult patients with MDD (Total) it was 40/120; in the experiment with adult patients with MDD (Variant negative), 6/25; with adult patients with MDD (subgroup N/A), 28/78. Besides, the “No Response (number of subjects)” value in the experiment on adult patients with MDD (<NA>) was 50; in the experiment on adult patients with MDD (In the Subgroup), 3; with adult patients with MDD (Not in Subgroup), 19. Besides, the “Response (number of subjects)” value with adult patients with MDD (<NA>) is 28; in the experiment with adult patients with MDD (In the Subgroup) it was 14; in the experiment with adult patients with MDD (Not in Subgroup), 6. For the same molecule, the “Cognition (CPFQ)” value in the experiment with adult MDD patients (10 mg/day) and in the experiment on adult MDD patients (20 mg/day) was “evidence for improved cognition” each time. Besides, the Cognition entry in the experiment on adult MDD patients (individuals with COL26A1 rs4045 and a CACNA1C variant, 20 mg/day for 8 weeks) is “improved cognition”. For the same molecule, the “Treatment-specific effect (MADRS scores)” value in the experiment with MDD individuals (10 mg) and in the experiment with MDD individuals (20 mg) was “evidence for a treatment-specific effect” each time. In addition, the “Response to treatment as measured by MADRS and HAM-A scores” value in the experiment with MDD individuals (MDD individuals with rs4045 and a CACNA1C variant) is listed as “significantly enhanced response”.
